Source: paper PMC5123632 (2016)

Test system: nasT'FRET (DNA, G4) GGGAGCGGGACGGGGGCCGGG
Assay: FRET melting
Settings: 100 mM Na+; 10 mM sodium cacodylate pH 7.4; 1 μM ligand (stated for ligand 1)

**Q.** How did the ΔTm turn out when `C[n+]1ccc(-c2c3nc(c(-c4cc[n+](C)cc4)c4ccc([nH]4)c(-c4cc[n+](C)cc4)c4nc(c(-c5cc[n+](C)cc5)c5ccc2[nH]5)C=C4)C=C3)cc1` was run?
**A.** 30 °C
